One data set deals with T1, UGT1A4 (Homo sapiens, UniProt P22310).
T1 construct: ultrapooled human liver microsomes (0.2 mg/mL); from tissue; host or cells: human liver microsomes (ultrapooled)
T1 sequence (P22310 29-534): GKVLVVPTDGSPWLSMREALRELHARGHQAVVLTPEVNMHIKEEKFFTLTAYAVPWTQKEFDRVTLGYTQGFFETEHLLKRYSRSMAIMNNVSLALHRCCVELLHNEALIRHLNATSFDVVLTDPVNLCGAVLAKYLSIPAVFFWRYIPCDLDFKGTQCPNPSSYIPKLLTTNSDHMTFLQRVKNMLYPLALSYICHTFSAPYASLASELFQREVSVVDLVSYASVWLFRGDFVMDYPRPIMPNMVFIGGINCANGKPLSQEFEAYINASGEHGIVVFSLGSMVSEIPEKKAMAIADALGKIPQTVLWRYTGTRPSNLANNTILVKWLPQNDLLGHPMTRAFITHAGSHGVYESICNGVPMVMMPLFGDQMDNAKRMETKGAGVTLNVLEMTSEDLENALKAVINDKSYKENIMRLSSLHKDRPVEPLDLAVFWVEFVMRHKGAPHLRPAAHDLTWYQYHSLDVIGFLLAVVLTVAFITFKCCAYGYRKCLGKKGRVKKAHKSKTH
Description: Inhibition of UGT1A4-catalyzed trifluoperazine N-β-D-glucuronidation in ultrapooled human liver microsomes. The class given is in vitro ADME. On the procedure: The inhibitory potential of mertansine on UGT1A1, UGT1A3, UGT1A4, UGT1A6, UGT1A9, and UGT2B7 activities was evaluated using liquid chromatography–tandem mass spectrometry (LC-MS/MS) with a cocktail of UGT substrates and ultrapooled human liver microsomes. Each incubation mixture was prepared to a final volume of 100 μL as follows: ultrapooled human liver microsomes (0.2 mg/mL), 5 mM UDPGA, 10 mM magnesium chloride, alamethicin (25 μg/mL), 50 mM Tris buffer (pH 7.4), various concentrations of mertansine in methanol (final concentrations of 0.01–50 μM), and the cocktail sets of UGT enzyme-specific substrates. Two cocktail sets were used: set A contained 0.5 μM SN-38 for UGT1A1, 2 μM chenodeoxycholic acid for UGT1A3, and 0.5 μM trifluoperazine for UGT1A4; and set B contained 1 μM N-acetylserotonin for UGT1A6, 0.2 μM mycophenolic acid for UGT1A9, and 1 μM naloxone for UGT2B7. The reactions were initiated by adding UDPGA and incubated in a shaking water bath for 60 min at 37 °C. […] Next, 50 μL of each supernatant of sets A and B was mixed, and aliquots (5 μL) were analyzed using LC-MS/MS. […]
The LC-MS/MS system was comprised of an Agilent 6495 triple quadrupole mass spectrometer coupled with an Agilent 1290 Infinity system (Agilent Technologies, Wilmington, DE, USA). […] The electrospray ionization (ESI) source settings in both positive and negative ion modes were as follows: gas temperature, 200 °C; gas flow, 14 L/min; nebulizer, 40 psi; sheath gas temperature, 380 °C; sheath gas flow, 11 L/min; capillary voltage, 4500 V; and nozzle voltage, 500 V. Each metabolite was quantified via selected reaction monitoring in the negative ion mode (chenodeoxycholic acid 24-acyl-β-glucuronide, m/z 567.1 to 391.2; mycophenolic acid β-D-glucuronide, m/z 495.0 to 319.0; propofol glucuronide (IS), m/z 353.0 to 177.0) and in the positive ion mode (SN-38 glucuronide, m/z 568.9 to 392.9; trifluoperazine N-β-D-glucuronide, m/z 583.9 to 407.9; N-acetylserotonin β-D-glucuronide, m/z 394.0 to 219.0; naloxone 3-β-D-glucuronide, m/z 503.9 to 309.9; meloxicam (IS), m/z 351.9 to 115.0). […]

The target of a further data set is T2, UGT1A9 (Homo sapiens, UniProt O60656).
T2 construct: ultrapooled human liver microsomes (0.2 mg/mL); from tissue; host or cells: human liver microsomes (ultrapooled)
Description: Inhibition of UGT1A9-catalyzed mycophenolic acid β-D-glucuronidation in ultrapooled human liver microsomes. It counts as in vitro ADME. On the procedure:
The inhibitory potential of mertansine on UGT1A1, UGT1A3, UGT1A4, UGT1A6, UGT1A9, and UGT2B7 activities was evaluated using liquid chromatography–tandem mass spectrometry (LC-MS/MS) with a cocktail of UGT substrates and ultrapooled human liver microsomes. Each incubation mixture was prepared to a final volume of 100 μL as follows: ultrapooled human liver microsomes (0.2 mg/mL), 5 mM UDPGA, 10 mM magnesium chloride, alamethicin (25 μg/mL), 50 mM Tris buffer (pH 7.4), various concentrations of mertansine in methanol (final concentrations of 0.01–50 μM), and the cocktail sets of UGT enzyme-specific substrates. Two cocktail sets were used: set A contained 0.5 μM SN-38 for UGT1A1, 2 μM chenodeoxycholic acid for UGT1A3, and 0.5 μM trifluoperazine for UGT1A4; and set B contained 1 μM N-acetylserotonin for UGT1A6, 0.2 μM mycophenolic acid for UGT1A9, and 1 μM naloxone for UGT2B7. The reactions were initiated by adding UDPGA and incubated in a shaking water bath for 60 min at 37 °C. Reactions were terminated by adding 50 μL of ice-cold acetonitrile containing internal standards (IS, propofol glucuronide for set A and meloxicam for set B). Incubation mixtures were centrifuged at 13,000 g for 8 min at 4 °C. Next, 50 μL of each supernatant of sets A and B was mixed, and aliquots (5 μL) were analyzed using LC-MS/MS. […]

The conditions of data set [1]: rats, intravenous [3H]-mertansine 0.2 mg/kg, cited from earlier work.
The subject of the next data set is CYP2C8 mRNA. Description: CYP2C8 mRNA level in human hepatocytes after 48 h treatment (RT-PCR). To be noted: plated cryopreserved human hepatocytes, IC50, suppression of CYP2C8 mRNA expression, 1.25–2500 nM.
The next data set concerns CYP2C9 mRNA. Description: CYP2C9 mRNA level in human hepatocytes after 48 h treatment (RT-PCR). To be noted: plated cryopreserved human hepatocytes, IC50, suppression of CYP2C9 mRNA expression, 1.25–2500 nM.
[2] abbreviates: Mean ± SD of three human hepatocyte lots, 48 h.
[3] abbreviates: human hepatocytes Lot 319, 48 h.
Where [4] appears, read: human hepatocytes Lot 321, 48 h.
The mark [5] stands for this setting: human hepatocytes Lot 361, 48 h.

Entries after “also recorded” stand apart in the source; their conditions may differ.

T2 sequence (O60656 26-530): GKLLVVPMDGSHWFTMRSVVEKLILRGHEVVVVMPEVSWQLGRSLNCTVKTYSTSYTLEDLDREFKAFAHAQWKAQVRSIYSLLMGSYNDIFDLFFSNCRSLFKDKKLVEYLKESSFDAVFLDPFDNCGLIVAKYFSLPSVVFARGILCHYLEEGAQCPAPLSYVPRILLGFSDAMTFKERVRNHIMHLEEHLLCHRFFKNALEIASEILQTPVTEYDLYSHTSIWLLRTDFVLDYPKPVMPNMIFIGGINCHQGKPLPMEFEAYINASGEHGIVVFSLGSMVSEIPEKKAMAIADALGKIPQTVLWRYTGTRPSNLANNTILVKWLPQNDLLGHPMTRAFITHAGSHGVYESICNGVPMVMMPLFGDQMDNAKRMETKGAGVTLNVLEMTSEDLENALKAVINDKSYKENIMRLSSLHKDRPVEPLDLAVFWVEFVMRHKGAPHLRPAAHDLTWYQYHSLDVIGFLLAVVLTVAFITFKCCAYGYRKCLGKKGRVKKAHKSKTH

Regarding `COc1cc2cc(c1Cl)N(C)C(=O)CC(OC(=O)C(C)N(C)C(=O)CCS)C1(C)OC1C(C)C1CC(O)(NC(=O)O1)C(OC)C=CC=C(C)C2` (stereo not shown) [mertansine, Mertansine], at UGT1A4 (human liver microsomes, Dixon plot), the “Inhibition Mode, UGT1A4” value is reported as “competitively inhibited; also recorded: competitive inhibitor”. This molecule showed an inhibition constant Ki at UGT1A4 (human liver microsomes, trifluoperazine 0.2–2 µM) of 21200 nM. Besides, the IC50 on UGT1A4 (ultrapooled human liver microsomes, 0.5 µM trifluoperazine (cocktail)) came to 23300 nM. The “Inhibition of UGT1A9 enzyme activity” value on UGT1A9 (human liver microsomes, mertansine at 50 µM) was “no inhibition; also recorded: negligibly inhibited”. Also, the “IC50, mycophenolic acid β-D-glucuronidation (UGT1A9)” value against UGT1A9 (ultrapooled human liver microsomes, 0.2 µM mycophenolic acid (cocktail)) was “No inhibition”. Besides, the Tissue-to-blood radioactivity ratios in data set [1] (highly perfused organs, for 24 h) is reported as 1~11. Further, the “Biliary excretion of dosed radioactivity” value in data set [1] (over 72 h) is recorded as ~ 46%. Moreover, in data set [1] (over 120 h), the “Dosed radioactivity recovered in urine” value was 5%. In addition, the IC50 at 48 h in the data set with CYP2C8 mRNA (setting [2]) was found to be 32.1 ± 14.9 nM; in the data set with CYP2C8 mRNA (setting [3]), 48.7 nM; with CYP2C8 mRNA (setting [4]), 20 nM; in the data set with CYP2C8 mRNA (setting [5]) it was 27.5 nM; in the data set with CYP2C9 mRNA (setting [2]), 578 ± 452 nM; with CYP2C9 mRNA (setting [3]), 788 nM. The concentration for half-maximal inhibition (IC50) at 48 h was 888 nM in the data set with CYP2C9 mRNA (setting [4]) and 59.6 nM with CYP2C9 mRNA (setting [5]).

The values above are taken from paper PMC7150891, “Mertansine Inhibits mRNA Expression and Enzyme Activities of Cytochrome P450s and Uridine 5′-Diphospho-Glucuronosyltransferases in Human Hepatocytes and Liver Microsomes” (Pharmaceutics, 2020).
